≈ marks a conversion by molar mass, not a printed value.
Experiments:
[1] = molecular target: T1, recombinant gamma-aminobutyric acid receptor-associated protein (rGABARAP) (Frankliniella occidentalis, UniProt A0A6J1T1Q2); experiment: Isothermal titration calorimetry (ITC) binding to rGABARAP; settings: 25° C., pH 7.4
Description: (§1) Preparation of recombinant GABARAP (rGABARAP) protein. RNA was extracted from F. occidentalis and cDNA was then synthesized. GABARAP (GenBank accession No. LOC113211372) was obtained after PCR amplification (Stafford-Banks, et al. (2014) Plos One 9:e94447).
The isothermal titration thermal binding measurements were performed with an ITC-200 calorimeter (GE Healthcare, Boston, MA) at 25° C. in a buffer containing 50 mM Tris-HCl and 100 mM NaCl (pH 7.4). […] The MicroCal Origin 7.0 software system was used for data processing. The first run was a pre-run and was excluded from the final data. The amount of protein in the sample pool was constant. […] The experimental bimolecular interaction data from the 18 drops were used to calculate the dissociation constant. The dissociation constant […] was calculated as 1/K (Li, et al. (2018) RSC Advances 8:18952-18958).

[2] = test system: T. castaneum (red flour beetle); experiment: Median lethal time (LT50) test, red flour beetle; assay type: in vivo, Tribolium castaneum
Description: (§2) All treatments and controls were in triplicate.
(§3) Toxicity of Monoterpenes as Fumigants. […] Therefore, to determine how fast the monoterpenes act as fumigants, it was necessary to determine their LT50 values for the target organisms.

[3] = molecular target: T1, recombinant gamma-aminobutyric acid receptor-associated protein (rGABARAP); experiment: Microscale thermophoresis (MST) binding to rGABARAP; settings: rGABARAP; read-out: Kd value, MST
Description: as §1
(§4) Interaction between ME and rGABARAP. A Nano Temper Monolith NT.115 MST system (Nano Temper, Munich, Germany) was used to assess the binding affinities between the target compounds and rGABARAP according to the published procedures (Zan, et al. (2020) Journal of Agricultural and Food Chemistry 68:6280-6285). Spinosyn A was used as a chemical positive control. Spinosyn A (≥1 nM) can trigger a change of the Cl^− current of insect neuron GABAAR, which is considered to be an insecticidal action mechanism of spinosyn A (Watson (2001) Pesticide Biochemistry and Physiology 71:20-28). Ovalbumin (OVA) (Sangon Biotech, Shanghai, China) is a control protein consisting of 385 amino acid residues. The interaction between OVA and ME was used as a protein control experiment (Huntington, et al. (1995) Protein Science 4:613-621).

[4] = test system: B. cucuribitae (melon fly); experiment: Median lethal time (LT50) test, melon fly; assay type: in vivo, Bactrocera cucuribitae
Description: as §2, §3

[5] = test system: Aedes aegypti (Linnaeus) (mosquito); settings: adult mosquito, exposed 30 minutes, mortality in 24 hours
Description: (§5) Median Lethal Concentration Tests. […] The species tested included Thrips (M. usitatus), spider mite (T. cinnabarinus), melon fly (B. cucuribitae), cockroach (B. lateralis), housefly (M. domestica), mosquito (A. aegypti), parasitic wasp (T. chilonis) and fruit fly (Drosophila melanogaster). After being exposed to the test chemicals for one hour, adult Thrips, spider mites, and roaches were transferred to another flask. In addition to fresh water, adult Thrips, spider mites, and roaches were then respectively fed with cowpea, fresh blade of eggplant, and peanut oil via filter. […] Mortality of melon fly was observed after three hours of exposure.

[6] = test system: Tetranychus cinnabarinus (Boisduval) (spider mites); settings: spider mites, exposed one hour
Description: as §5

[7] = test system: Bactrocera cucuribitae (Coquillett) (melon fly); settings: melon fly
Description: as §5

[8] = test system: Musca domestica (Linnaeus) (housefly); settings: adult housefly, exposed one hour, mortality in 24 hours
Description: as §5

[9] = test system: Blatta lateralis (Walker) (cockroach); settings: cockroach second instar nymphs, exposed one hour
Description: as §5

[10] = T 22-25 °C; cited from earlier work
[11] = test system: Megalurothrips usitatus (Bagrall) (thrips); experiment: Median lethal concentration fumigation test, thrips; settings: adult thrips, exposed one hour, mortality observed in 24 hours
Description: as §5

adult T. palmi = settings: cited from earlier work
Thrips, M. usitatus = experiment: Headspace fumigation toxicity of linalool mixed in peanut oil; assay type: in vivo, Megalurothrips usitatus; settings: thrips exposed to headspace above the solution
rGABARAP^Y174A = rGABARAP^Y174A (Frankliniella occidentalis, UniProt A0A6J1T1Q2); experiment: MST binding to rGABARAP mutant; settings: read-out: Kd value, MST
Description: as §4
Preparation of rGABARAP Mutant and Interaction Between ME and rGABARAP Mutant. […] DNAman was used to convert the nucleic acid sequence into an amino acid sequence and find the Y174 site. Y174 was mutated to A174. The rGABARAP mutant gene loaded into the pMCSG19 vector and the His tags at both ends of the sequence were retained to construct a prokaryotic expression plasmid. The carrier contained a maltose binding protein (MBP) tag that was not cut for verification. However, MBP and ME were used as treatment controls. The mutant plasmid was constructed in Sangon Biotech (Shanghai, China). The protein expression, purification, and desalting procedures of rGABARAP^Y174A mutant and rGABARAP were the same. Subsequently, the binding kinetics of ME and rGABARAP^Y174A were tested by MST and ITC.

[12] = test system: Musca domestica (housefly); experiment: Median knockdown concentration (KC50) test, housefly; assay type: in vivo; settings: Musca domestica
Description: as §2
Knockdown Activity of Monoterpenes.

T1 sequence (A0A6J1T1Q2 1-118): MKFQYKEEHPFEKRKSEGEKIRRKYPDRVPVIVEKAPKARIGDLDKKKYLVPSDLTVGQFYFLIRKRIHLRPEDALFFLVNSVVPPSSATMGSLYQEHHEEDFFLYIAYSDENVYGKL
Chain of rGABARAP^Y174A (A0A6J1T1Q2 entry or part of it, stated change not applied): as the sequence (A0A6J1T1Q2 1-118) above

C=CC(C)(O)CCC=C(C)C (centres unmarked) [Linalool, 3,7-dimethylocta-1,6-dien-3-o1]
Kd [1]: 6.89 µM
LT50 (fiducial limits) [2]: 35.1 h
Kd [3]: 12.3 µM
LT50 (fiducial limits) [4]: 2.05 h
LC50 (fiducial limits) [5]: >243 µg/mL
LC90 (fiducial limits) [5]: >243 µg/mL
LC50 (fiducial limits) [6]: 550 µg/mL (≈ 3570 µM)
LC90 (fiducial limits) [6]: 4330 µg/mL (≈ 28100 µM)
LC50 (fiducial limits) [7]: >243 µg/mL
LC90 (fiducial limits) [7]: >243 µg/mL
LC50 (fiducial limits) [8]: 30.6 µg/mL (≈ 198 µM)
LC90 (fiducial limits) [8]: 176 µg/mL (≈ 1140 µM)
LC50 (fiducial limits) [9]: 345 µg/mL (≈ 2240 µM)
LC90 (fiducial limits) [9]: 1700 µg/mL (≈ 11000 µM)
Vp (Pa)/T (° C.) [10]: 21.28/22-25 Pa
LC50 (fiducial limits) [11]: 2.50 µg/mL (≈ 16.2 µM)
LC90 (fiducial limits) [11]: 6.4 µg/mL (≈ 41.5 µM)
LC50, fumigation toxicity (adult T. palmi): 5.5 µg/mL (≈ 35.7 µM)
fold more effective than dichlorvos (adult T. palmi): 15.2 fold
LC50 of linalool mixed in peanut oil (Thrips, M. usitatus): 4.7%
Kd (rGABARAP^Y174A): 16.3 ± 6.79 µM
KC50 (fiducial limits) ([12]; 20 Minutes): >243 µg/mL
KC50 (fiducial limits) ([12]; 30 Minutes): 192 µg/mL
